Source: the supplement of paper PMC10307832

Legend:
Test in all cases: relative viability (nuclei count vs DMSO), 5 days (fraction); higher = more cells survive
Bleomycin + Palbociclib = compound: CC1=C(N=C(N=C1N)[C@H](CC(=O)N)NC[C@@H](C(=O)N)N)C(=O)N[C@@H]([C@H](C2=CN=CN2)OC3C(C(C(C(O3)CO)O)O)OC4C(C(C(C(O4)CO)O)OC(=O)N)O)C(=O)N[C@H](C)[C@H]([C@H](C)C(=O)N[C@@H]([C@@H](C)O)C(=O)NCCC5=NC(=CS5)C6=NC(=CS6)C(=O)NCCC[S+](C)C)O [Bleomycin] + CC(=O)c1c(C)c2cnc(Nc3ccc(N4CCNCC4)cn3)nc2n(C2CCCC2)c1=O [Palbociclib] (partner 0.5 µM); details: main component drawn
How it was run: (§1)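 Relative viability divides the nuclei count in treated wells by that in vehicle wells. Lung cancer cell lines were seeded in 1536-well plates, dosed by pin tool the next day, and fixed and stained after 5 days in one step with final 0.05% Triton X-100, 1% formaldehyde and 1 ug/ml Hoechst. Dosing was a single drug or a fixed anchor-drug dose plus five library-drug doses (not always all listed) in √10 steps, and values are medians of duplicate plates imaged at 4×.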

Bleomycin + Crizotinib = compound: CC1=C(N=C(N=C1N)[C@H](CC(=O)N)NC[C@@H](C(=O)N)N)C(=O)N[C@@H]([C@H](C2=CN=CN2)OC3C(C(C(C(O3)CO)O)O)OC4C(C(C(C(O4)CO)O)OC(=O)N)O)C(=O)N[C@H](C)[C@H]([C@H](C)C(=O)N[C@@H]([C@@H](C)O)C(=O)NCCC5=NC(=CS5)C6=NC(=CS6)C(=O)NCCC[S+](C)C)O [Bleomycin] + C[C@@H](Oc1cc(-c2cnn(C3CCNCC3)c2)cnc1N)c1c(Cl)ccc(F)c1Cl [Crizotinib] (partner 1 µM); details: main component drawn
How it was run: as §1

Etoposide + Bortezomib = compound: COc1cc([C@@H]2c3cc4c(cc3[C@@H](O[C@@H]3O[C@@H]5CO[C@@H](C)O[C@H]5[C@H](O)[C@H]3O)[C@H]3COC(=O)[C@H]23)OCO4)cc(OC)c1O [Etoposide] + CC(C)C[C@H](NC(=O)[C@H](Cc1ccccc1)NC(=O)c1cnccn1)B(O)O [Bortezomib] (partner 0.002 µM)
How it was run: as §1

Etoposide + Vorinostat = compound: COc1cc([C@@H]2c3cc4c(cc3[C@@H](O[C@@H]3O[C@@H]5CO[C@@H](C)O[C@H]5[C@H](O)[C@H]3O)[C@H]3COC(=O)[C@H]23)OCO4)cc(OC)c1O [Etoposide] + O=C(CCCCCCC(=O)Nc1ccccc1)NO [Vorinostat] (partner 1 µM)
How it was run: as §1

Cell Line: HARA
- relative viability (Bleomycin + Palbociclib; first compound 0.01 µM): 0.219
- relative viability (Bleomycin + Palbociclib; first compound 0.03162 µM): 0.291
- relative viability (Bleomycin + Palbociclib; first compound 0.1 µM): 0.252
- relative viability (Bleomycin + Palbociclib; first compound 0.3162 µM): 0.188
- relative viability (Bleomycin + Palbociclib; first compound 1 µM): 0.197
- relative viability (Bleomycin + Crizotinib; first compound 0.01 µM): 0.938
- relative viability (Bleomycin + Crizotinib; first compound 0.03162 µM): 0.952
- relative viability (Bleomycin + Crizotinib; first compound 0.1 µM): 0.974
- relative viability (Bleomycin + Crizotinib; first compound 0.3162 µM): 0.54
- relative viability (Bleomycin + Crizotinib; first compound 1 µM): 0.36
- relative viability (Etoposide + Bortezomib; first compound 0.01 µM): 1.04
- relative viability (Etoposide + Bortezomib; first compound 0.03162 µM): 1.29
- relative viability (Etoposide + Bortezomib; first compound 0.1 µM): 1.11
- relative viability (Etoposide + Bortezomib; first compound 0.3162 µM): 0.995
- relative viability (Etoposide + Bortezomib; first compound 1 µM): 0.235
- relative viability (Etoposide + Vorinostat; first compound 0.01 µM): 0.443
- relative viability (Etoposide + Vorinostat; first compound 0.03162 µM): 0.573
- relative viability (Etoposide + Vorinostat; first compound 0.1 µM): 0.586
- relative viability (Etoposide + Vorinostat; first compound 0.3162 µM): 0.125
- relative viability (Etoposide + Vorinostat; first compound 1 µM): 0.095

Cell Line: HCC-15
- relative viability (Bleomycin + Palbociclib; first compound 0.01 µM): 0.711
- relative viability (Bleomycin + Palbociclib; first compound 0.03162 µM): 0.686
- relative viability (Bleomycin + Palbociclib; first compound 0.1 µM): 0.648
- relative viability (Bleomycin + Palbociclib; first compound 0.3162 µM): 0.343
- relative viability (Bleomycin + Palbociclib; first compound 1 µM): 0.285
- relative viability (Bleomycin + Crizotinib; first compound 0.01 µM): 0.731
- relative viability (Bleomycin + Crizotinib; first compound 0.03162 µM): 0.725
- relative viability (Bleomycin + Crizotinib; first compound 0.1 µM): 0.627
- relative viability (Bleomycin + Crizotinib; first compound 0.3162 µM): 0.326
- relative viability (Bleomycin + Crizotinib; first compound 1 µM): 0.242
- relative viability (Etoposide + Bortezomib; first compound 0.01 µM): 0.959
- relative viability (Etoposide + Bortezomib; first compound 0.03162 µM): 1.04
- relative viability (Etoposide + Bortezomib; first compound 0.1 µM): 1.13
- relative viability (Etoposide + Bortezomib; first compound 0.3162 µM): 0.67
- relative viability (Etoposide + Bortezomib; first compound 1 µM): 0.157
- relative viability (Etoposide + Vorinostat; first compound 0.01 µM): 0.766
- relative viability (Etoposide + Vorinostat; first compound 0.03162 µM): 0.894
- relative viability (Etoposide + Vorinostat; first compound 0.1 µM): 0.779
- relative viability (Etoposide + Vorinostat; first compound 0.3162 µM): 0.275
- relative viability (Etoposide + Vorinostat; first compound 1 µM): 0.178

Cell Line: HCC-44
- relative viability (Bleomycin + Palbociclib; first compound 0.01 µM): 0.861
- relative viability (Bleomycin + Palbociclib; first compound 0.03162 µM): 0.821
- relative viability (Bleomycin + Palbociclib; first compound 0.1 µM): 0.64
- relative viability (Bleomycin + Palbociclib; first compound 0.3162 µM): 0.455
- relative viability (Bleomycin + Palbociclib; first compound 1 µM): 0.382
- relative viability (Bleomycin + Crizotinib; first compound 0.01 µM): 0.484
- relative viability (Bleomycin + Crizotinib; first compound 0.03162 µM): 0.256
- relative viability (Bleomycin + Crizotinib; first compound 0.1 µM): 0.223
- relative viability (Bleomycin + Crizotinib; first compound 0.3162 µM): 0.152
- relative viability (Bleomycin + Crizotinib; first compound 1 µM): 0.138
- relative viability (Etoposide + Bortezomib; first compound 0.01 µM): 1.01
- relative viability (Etoposide + Bortezomib; first compound 0.03162 µM): 0.905
- relative viability (Etoposide + Bortezomib; first compound 0.1 µM): 1.02
- relative viability (Etoposide + Bortezomib; first compound 0.3162 µM): 0.781
- relative viability (Etoposide + Bortezomib; first compound 1 µM): 0.418
- relative viability (Etoposide + Vorinostat; first compound 0.01 µM): 1.12
- relative viability (Etoposide + Vorinostat; first compound 0.03162 µM): 1.04
- relative viability (Etoposide + Vorinostat; first compound 0.1 µM): 1.21
- relative viability (Etoposide + Vorinostat; first compound 0.3162 µM): 1.02
- relative viability (Etoposide + Vorinostat; first compound 1 µM): 0.727

Cell Line: IA-LM
- relative viability (Bleomycin + Crizotinib; first compound 0.01 µM): 0.502
- relative viability (Bleomycin + Crizotinib; first compound 0.03162 µM): 0.64
- relative viability (Bleomycin + Crizotinib; first compound 0.1 µM): 0.476
- relative viability (Bleomycin + Crizotinib; first compound 0.3162 µM): 0.523
- relative viability (Bleomycin + Crizotinib; first compound 1 µM): 0.29
- relative viability (Etoposide + Bortezomib; first compound 0.01 µM): 0.821
- relative viability (Etoposide + Bortezomib; first compound 0.03162 µM): 0.929
- relative viability (Etoposide + Bortezomib; first compound 0.1 µM): 0.466
- relative viability (Etoposide + Bortezomib; first compound 0.3162 µM): 0.837
- relative viability (Etoposide + Bortezomib; first compound 1 µM): 0.522
- relative viability (Etoposide + Vorinostat; first compound 0.01 µM): 0.701
- relative viability (Etoposide + Vorinostat; first compound 0.03162 µM): 1
- relative viability (Etoposide + Vorinostat; first compound 0.1 µM): 0.577
- relative viability (Etoposide + Vorinostat; first compound 0.3162 µM): 0.826
- relative viability (Etoposide + Vorinostat; first compound 1 µM): 0.354

Cell Line: LK-2
- relative viability (Bleomycin + Palbociclib; first compound 0.01 µM): 0.45
- relative viability (Bleomycin + Palbociclib; first compound 0.03162 µM): 0.299
- relative viability (Bleomycin + Palbociclib; first compound 0.1 µM): 0.418
- relative viability (Bleomycin + Palbociclib; first compound 0.3162 µM): 0.15
- relative viability (Bleomycin + Palbociclib; first compound 1 µM): 0.134
- relative viability (Bleomycin + Crizotinib; first compound 0.01 µM): 0.237
- relative viability (Bleomycin + Crizotinib; first compound 0.03162 µM): 0.216
- relative viability (Bleomycin + Crizotinib; first compound 0.1 µM): 0.213
- relative viability (Bleomycin + Crizotinib; first compound 0.3162 µM): 0.229
- relative viability (Bleomycin + Crizotinib; first compound 1 µM): 0.273
- relative viability (Etoposide + Vorinostat; first compound 0.01 µM): 0.317
- relative viability (Etoposide + Vorinostat; first compound 0.03162 µM): 0.374
- relative viability (Etoposide + Vorinostat; first compound 0.1 µM): 0.165
- relative viability (Etoposide + Vorinostat; first compound 0.3162 µM): 0.158
- relative viability (Etoposide + Vorinostat; first compound 1 µM): 0.149

Cell Line: NCI-H358
- relative viability (Bleomycin + Palbociclib; first compound 0.01 µM): 0.142
- relative viability (Bleomycin + Palbociclib; first compound 0.03162 µM): 0.178
- relative viability (Bleomycin + Palbociclib; first compound 0.1 µM): 0.115
- relative viability (Bleomycin + Palbociclib; first compound 0.3162 µM): 0.133
- relative viability (Bleomycin + Palbociclib; first compound 1 µM): 0.111
- relative viability (Bleomycin + Crizotinib; first compound 0.01 µM): 0.484
- relative viability (Bleomycin + Crizotinib; first compound 0.03162 µM): 0.486
- relative viability (Bleomycin + Crizotinib; first compound 0.1 µM): 0.514
- relative viability (Bleomycin + Crizotinib; first compound 0.3162 µM): 0.29
- relative viability (Bleomycin + Crizotinib; first compound 1 µM): 0.263
- relative viability (Etoposide + Vorinostat; first compound 0.01 µM): 0.663
- relative viability (Etoposide + Vorinostat; first compound 0.03162 µM): 0.508
- relative viability (Etoposide + Vorinostat; first compound 0.1 µM): 0.411
- relative viability (Etoposide + Vorinostat; first compound 0.3162 µM): 0.107
- relative viability (Etoposide + Vorinostat; first compound 1 µM): 0.0977

Cell Line: NCI-H522
- relative viability (Bleomycin + Palbociclib; first compound 0.01 µM): 0.904
- relative viability (Bleomycin + Palbociclib; first compound 0.03162 µM): 0.829
- relative viability (Bleomycin + Palbociclib; first compound 0.1 µM): 0.76
- relative viability (Bleomycin + Palbociclib; first compound 0.3162 µM): 0.386
- relative viability (Bleomycin + Palbociclib; first compound 1 µM): 0.4
- relative viability (Etoposide + Vorinostat; first compound 0.01 µM): 0.934
- relative viability (Etoposide + Vorinostat; first compound 0.03162 µM): 0.981
- relative viability (Etoposide + Vorinostat; first compound 0.1 µM): 0.774
- relative viability (Etoposide + Vorinostat; first compound 0.3162 µM): 0.841
- relative viability (Etoposide + Vorinostat; first compound 1 µM): 0.834

Cell Line: NCI-H596
- relative viability (Bleomycin + Crizotinib; first compound 0.01 µM): 0.896
- relative viability (Bleomycin + Crizotinib; first compound 0.03162 µM): 0.661
- relative viability (Bleomycin + Crizotinib; first compound 0.1 µM): 0.558
- relative viability (Bleomycin + Crizotinib; first compound 0.3162 µM): 0.409
- relative viability (Bleomycin + Crizotinib; first compound 1 µM): 0.475
- relative viability (Etoposide + Bortezomib; first compound 0.01 µM): 0.798
- relative viability (Etoposide + Bortezomib; first compound 0.03162 µM): 1.1
- relative viability (Etoposide + Bortezomib; first compound 0.3162 µM): 0.968
- relative viability (Etoposide + Bortezomib; first compound 1 µM): 0.977
- relative viability (Etoposide + Vorinostat; first compound 0.01 µM): 0.52
- relative viability (Etoposide + Vorinostat; first compound 0.03162 µM): 0.672
- relative viability (Etoposide + Vorinostat; first compound 0.1 µM): 0.449
- relative viability (Etoposide + Vorinostat; first compound 0.3162 µM): 0.591
- relative viability (Etoposide + Vorinostat; first compound 1 µM): 0.323
